Laboratory results taken from article PMC3508689 (Biochemistry, 2011).

Molecular target: T1, human PPM1D catalytic domain (residues 1–420) (Homo sapiens, UniProt O15297)
T1 sequence (O15297 1-420): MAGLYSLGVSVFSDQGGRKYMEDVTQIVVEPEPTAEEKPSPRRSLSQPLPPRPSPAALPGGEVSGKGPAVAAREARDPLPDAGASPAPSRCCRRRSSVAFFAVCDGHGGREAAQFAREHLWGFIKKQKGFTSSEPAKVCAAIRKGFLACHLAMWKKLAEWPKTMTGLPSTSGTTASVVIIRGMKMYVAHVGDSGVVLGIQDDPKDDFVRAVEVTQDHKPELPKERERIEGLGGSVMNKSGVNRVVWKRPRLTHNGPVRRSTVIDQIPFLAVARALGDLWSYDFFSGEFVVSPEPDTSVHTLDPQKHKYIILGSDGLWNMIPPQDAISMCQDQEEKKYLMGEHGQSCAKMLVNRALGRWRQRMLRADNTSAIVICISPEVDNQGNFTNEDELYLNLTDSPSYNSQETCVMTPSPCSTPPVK
Type: biochemical
Conditions: cyclic peptide 25 μM, ATM substrate peptide 30 μM

Substance	inhibitory activity against PPM1D (in words)
cyclo(F-F2Pab-I-pY-DDC)-amide [peptide 44]	did not show inhibitory activity
cyclo[(D-Asp)-(D-Asp)-(D-pY)-(D-I)-(D-pS)-(D-F)-C]-amide [peptide 47]	no significant inhibitory activity
